# Experimental data as given in ChEMBL document CHEMBL3758085, “Synthesis and cytotoxicity of thieno[2,3-b]quinoline-2-carboxamide and cycloalkyl[b]thieno[3,2-e]pyridine-2-carboxamide derivatives” (Bioorg Med Chem, 2016).
# Activity calls are given as the source filed them. No cut-off for these calls is given here.
# Columns and labels:
# Escherichia coli = test: Antibacterial activity against Escherichia coli DH5[alpha] at 1 to 10 mg/ml incubated overnight by agar diffusion method; type: functional, organism-based
# MDA-MB-468 [1] = test: Antiproliferative activity against human MDA-MB-468 cells assessed as cell growth at 1 uM incubated for 3 days by 3H-thymidine incorporation assay relative to control; type: functional; conditions: read-out: Activity
# MDA-MB-231 [2] = test: Antiproliferative activity against human MDA-MB-231 cells assessed as cell growth incubated for 3 days by 3H-thymidine incorporation assay relative to control; type: functional, cell-based
# Pseudomonas aeruginosa = test: Antibacterial activity against Pseudomonas aeruginosa at 1 to 10 mg/ml incubated overnight by agar diffusion method; type: functional, organism-based
# [3] = Antiproliferative activity against human HCT116 cells assessed as cell growth at 1 uM incubated for 3 days by 3H-thymidine incorporation assay relative to control; type: functional; conditions: HCT-116, read-out: Activity
# MDA-MB-231 [4] = test: Antiproliferative activity against human MDA-MB-231 cells assessed as cell growth at 1 uM incubated for 3 days by 3H-thymidine incorporation assay relative to control; type: functional; conditions: read-out: Activity
# K562 = test: Antiproliferative activity against human K562 cells assessed as cell growth incubated for 3 days by 3H-thymidine incorporation assay relative to control; type: functional, cell-based
# [5] = Antiproliferative activity against human HCT116 cells assessed as cell growth incubated for 3 days by 3H-thymidine incorporation assay relative to control; type: functional, cell-based; conditions: HCT-116
# Staphylococcus aureus = test: Antibacterial activity against Staphylococcus aureus at 1 to 10 mg/ml incubated overnight by agar diffusion method; type: functional, organism-based
# MDA-MB-468 [6] = test: Antiproliferative activity against human MDA-MB-468 cells assessed as cell growth incubated for 3 days by 3H-thymidine incorporation assay relative to control; type: functional, cell-based
IC50 (MDA-MB-231 [2]) [nM],IC50 (K562) [nM],IC50 (MDA-MB-468 [6]) [nM],SMILES,Activity (Escherichia coli),growth at 1 µM (MDA-MB-468 [1]) [%],Activity (Pseudomonas aeruginosa),growth at 1 µM [3] [%],growth at 1 µM (MDA-MB-231 [4]) [%],IC50 [5] [nM],Activity (Staphylococcus aureus)
854,576,447,Nc1c(C(=O)Nc2cccc3ccccc23)sc2nc3c(cc12)CCCC3,inactive,8,inactive,37,60,720,inactive
221,153,134,Cc1c(Cl)cccc1NC(=O)c1sc2nc3c(cc2c1N)CCCC3,inactive,6,inactive,3,15,191,inactive
